{"source": "patent US5506102A", "about": "(priority 1993, dated 1996)", "molecular_target": "T1, human estrogen receptor (Homo sapiens, UniProt P03372)", "T1 construct": "expressed in transfected cells; host or cells: CV-1", "T1 sequence (P03372 1-595)": "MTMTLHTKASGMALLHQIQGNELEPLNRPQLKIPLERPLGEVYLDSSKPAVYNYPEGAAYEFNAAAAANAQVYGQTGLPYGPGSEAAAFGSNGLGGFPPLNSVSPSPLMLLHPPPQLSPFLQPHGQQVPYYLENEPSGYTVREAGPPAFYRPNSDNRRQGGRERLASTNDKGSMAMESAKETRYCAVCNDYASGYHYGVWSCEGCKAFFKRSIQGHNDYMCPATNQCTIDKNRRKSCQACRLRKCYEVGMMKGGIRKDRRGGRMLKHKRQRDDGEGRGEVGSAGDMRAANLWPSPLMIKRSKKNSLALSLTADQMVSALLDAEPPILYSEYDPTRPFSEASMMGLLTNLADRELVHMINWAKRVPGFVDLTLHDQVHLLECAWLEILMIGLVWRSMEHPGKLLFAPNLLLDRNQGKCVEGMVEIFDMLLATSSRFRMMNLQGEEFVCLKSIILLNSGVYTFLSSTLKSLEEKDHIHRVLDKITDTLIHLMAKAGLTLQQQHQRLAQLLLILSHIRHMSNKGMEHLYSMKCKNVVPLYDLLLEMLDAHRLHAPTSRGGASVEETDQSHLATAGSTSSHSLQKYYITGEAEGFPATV", "assay": "ER transcriptional activity on MMTV-ERE-LUC, CV-1 cells, ER alone", "type": "cell-based", "conditions": "10^-7 M 17β-estradiol", "description": "All values were normalized for transfection efficiency by simultaneous estimation of luciferase and β-galactocidase activities. The relative luciferase activity is calculated by dividing the normalized luciferase value at a given point by that obtained in the absence of transfected receptor or ligand. Data shown represent the mean +/- the average deviation from the mean of triplicate estimations.\nExperimental protocols and data calculation are as described in FIG. 11. The experiment detailed above is representative of independent assays (N>3). Data shown represent the mean +/- the average deviation from the mean of triplicate estimations.\nVegeto et al., supra. Cells were plated into 96-well tissue culture plates. The vector DNA was introduced into the CV-1 cells using calcium phosphate coprecipitation as described herein. More specifically, 20 μg of DNA/ml of transfection buffer were used in each transfection. […] The concentration of pXVhPR-A vector chosen was determined by performing the experiment at several different concentrations of vector, and then using that concentration that was optimal for transcriptional readout. […] The Normalized LUC activity was calculated by dividing the raw luciferase (×10^4) units for each point by the β-galactosidase activity [(OD415 nm ×10^5)/time min.] at that point."}
{"smiles": "CC(=O)[C@H]1CC[C@H]2[C@@H]3CCC4=CC(=O)CC[C@]4(C)[C@H]3CC[C@]12C", "note": "[progesterone]", "values": [{"measurement": "direct effects on ER", "result": "no direct effects on ER were observed"}]}
